Experiments:
[1] = system: human adenocarcinoma cells (SW620); experiment: Fluorometric microculture cytotoxicity assay (FMCA), SW620; type: cell-based; conditions: for cytostatic effect (alone): FMCA, 72 h
Method: (§1) HCT-8 cells were grown in RPMI 1640 medium with sodium pyruvate (1 mM) and 10% horse serum. SW620 were grown in ATCC-formulated Leibovitz's L-15 Medium with 10% fetal bovine serum. Cells were kept at 37° C. in a humidified atmosphere containing 5% carbon dioxide. The cells were harvested in the log-phase for experimental use. The fluorometric microculture cytotoxicity assay (FMCA) was used to investigate the cytostatic activity of oxaliplatin, MnDPDP or DPDP and combinations thereof. FMCA is based on measurement of fluorescence generated from hydrolysis of fluorescein diacetate (FDA) to fluorescein by cells with intact plasma membranes. Briefly, 96-well microtiter plates were freshly prepared with drug solutions in triplicates at 10 times the desired drug concentrations. Cell suspensions were seeded into the drug-prepared plates with 20 000 cells per well and plates were then incubated for 72 h. After incubation, the plates were washed, FDA was added, and after 50 min of incubation the fluorescence generated (excitation 480 nm) was measured at 538 nm in a fluorometer (Fluorostar Optima, BMG Technologies). The fluorescence is proportional to the number of cells with intact plasma membrane present in the well.

[2] = from the reported stability constants
[3] = Fenton assay (competition with iron, H2DCF oxidation); conditions: FIG. 4
Method: By permitting the chelator DPDP, the metal complexes MnDPDP and MnPLED to compete with iron in the Fenton assay, the stability of MnDPDP and MnPLED was compared.
H2O2 (100 μM) was added to initiate the production of hydroxyl radicals (HO.). The latter oxidize H2DCF (non-fluorescent 2′,7′-dichlorodihydrofluorescein; 5 μM) to fluorescent DCF (2′,7′-dichlorofluorescein). H2DCF was obtained by hydrolysing its acetate ester (H2DCF-DA)]. […] DPDP, MnDPDP and MnPLED at various concentrations were assayed for their iron-chelating capacity. Fluorescence was measured in an FL600 Microplate Fluorescence reader (Bio-Tek, Winooski, Vt., U.S.A.) at ex 485 nm and em 530 nm.

[4] = system: normal retinal epithelia telomerase immortalized cells (hTERT-RPE1); experiment: Fluorometric microculture cytotoxicity assay (FMCA), hTERT-RPE1; type: cell-based; conditions: for cytostatic effect (alone): FMCA, 72 h
[5] = system: human ileocecal colorectal adenocarcinoma cells (HCT-8); experiment: Fluorometric microculture cytotoxicity assay (FMCA), HCT-8; type: cell-based; conditions: HCT-8 cells; for cytostatic effect (alone): FMCA, 72 h
Method: as §1

[6] = system: murine lymphoma J774 cells; conditions: 24 h, MTT
Method: (§2) The viability of cells was measured using the MTT assay. Briefly, 20,000 SW480 or J774 cells were seeded per well on a 96-well plate and grown over night in Dulbecco's Modified Eagle's Medium (DMEM) containing 10% fetal bovine serum, 2 mM L-glutamine, 100 Ul/ml penicillin and 100 μg/ml streptomycin at 37° C. in humidified air with 5% CO2. Cells were then exposed for 24 h to 50 μM MnDPDP, 50 μM DPDP or 10 μM oxaliplatin at 37° C. The effect of combining 50 μM DPDP with 10 μM oxaliplatin on viability was also tested. The viability of the cells was then assessed by adding 5 mg/ml methylthiazoletetrazolium (MTT) to a final concentration of 0.5 mg/ml and incubating cells for a further 4 h at 37° C. The blue formazan that is formed by mitochondrial dehydrogenases of viable cells was then dissolved over night at 37° C. by adding 10% SDS and 10 mM HCl to a final concentration of 5% SDS and 5 mM HCl. Finally, the absorbance of the solution was read at 570 nm with a reference at 670 nm in a microplate reader Spectramax 340 (Molecular Devices, Sunnyvale, Calif., USA) connected to an Apple Macintosh computer running the program Softmax Pro V1.2.0 (Molecular Devices, Sunnyvale, Calif., USA).

[7] = system: human colon cancer SW480 cells; conditions: 24 h, MTT
Method: as §2

[8] = Rocklage et al., 1989; cited from earlier work
[9] = Rocklage et al., 1989; cited from earlier work; remark: listed apart in the source
[10] = Rocklage et al., 1989; cited from earlier work; remark: listed apart in the source
infarct size = conditions: pigs; MnPLED 3 μmol/kg; cited from earlier work
[11] = pigs, ten minutes after injection; cited from earlier work
[12] = cited from earlier work

Cc1ncc(COP(=O)(O)O)c(CN(CCN(CC(=O)O)Cc2c(COP(=O)(O)O)cnc(C)c2O)CC(=O)O)c1O [DPDP, N,N′-bis-(pyridoxal-5-phosphate)-ethylenediamine-N,N′-diacetic acid]
potentiation of the cytostatic effects of oxaliplatin ([1]; 100 μM with 8 μM oxaliplatin, FMCA 72 h, FIG. 3B): significantly (unpaired t-test) potentiated
cytostatic effect (alone) [1]: Neither MnDPDP nor DPDP demonstrated any cytostatic effect
how much more readily Mn^2+ dissociates than Zn^2+ [2]: about 1000 times
inhibition of the Fenton reaction ([3]; 10 μM ferric iron, 100 μM cysteine, 100 μM H2O2): inhibited the Fenton reaction in a dose-dependent manner
concentration at which inhibition of the Fenton reaction started ([3]; 10 μM ferric iron): 0.1 µM
concentration at which inhibition of the Fenton reaction was complete ([3]; 10 μM ferric iron): 10 µM
potentiation of the cytostatic effects of oxaliplatin ([4]; 100 μM with 8 μM oxaliplatin, FMCA 72 h, FIG. 3D): but not in normal cells
cytostatic effect (alone) [4]: Neither MnDPDP nor DPDP demonstrated any cytostatic effect
potentiation of the cytostatic effects of oxaliplatin ([5]; 100 μM with 8 μM oxaliplatin, FMCA 72 h, FIG. 3C): significantly (unpaired t-test) potentiated
cytostatic effect (alone) [5]: Neither MnDPDP nor DPDP demonstrated any cytostatic effect
cytostatic activity in combination with oxaliplatin versus oxaliplatin alone ([6]; 50 μM DPDP + 10 μM oxaliplatin): significantly more efficacious than oxaliplatin alone
cytostatic activity ([6]; 50 μM, FIG. 2): significantly more efficacious to kill the lymphoma cells than MnDPDP
cytostatic activity in combination with oxaliplatin versus oxaliplatin alone ([7]; 50 μM DPDP + 10 μM oxaliplatin): tendency, although not statistically significant (p<0.07), that DPDP in combination with oxaliplatin was more potent than oxaliplatin alone
cytostatic activity ([7]; 50 μM, unpaired t-test, FIG. 1): statistically significant more efficacious than that of 50 μM MnDPDP

O=C1[O][Pt]2([NH][C@@H]3CCCC[C@H]3[NH]2)[O]C1=O [Oxaliplatin, oxaliplatin]
cytostatic effect (alone) [1]: concentrations-dependent cytostatic effect
cytostatic effect (alone) [4]: only a slight effect at its highest concentration
cytostatic effect (alone) [5]: concentrations-dependent cytostatic effect

Cc1ncc(CO)c(CN(CCN(CC(=O)O)Cc2c(CO)cnc(C)c2O)CC(=O)O)c1O [PLED, N,N′-dipyridoxyl ethylenediamine-N,N′-diacetic acid]
how much more readily Mn^2+ dissociates than Zn^2+ [2]: about 1000 times
stability constant with Mn^2+ [8]: 12.56 logK
stability constant with Zn^2+ [9]: 16.68 logK
stability constant with Fe^3+ (ferric iron) [10]: 36.88 logK

MnDPDP
cytostatic effect (alone) [1]: Neither MnDPDP nor DPDP demonstrated any cytostatic effect
iron-chelating capacity ([3]; Fenton assay): significantly higher than that of MnPLED
infarct size (infarct size): did not reduce the infarct size
cytostatic effect (alone) [4]: Neither MnDPDP nor DPDP demonstrated any cytostatic effect
replacement of manganese with zinc [11]: all manganese has been replaced with zinc
cytostatic effect (alone) [5]: Neither MnDPDP nor DPDP demonstrated any cytostatic effect
administered manganese released ([12]; humans, intravenous injection): about 70%
injected manganese that stays bound to the chelator ([12]; man, for a considerable amount of time): about 30%
injected MnDPDP transformed into MnPLED ([12]; man, shortly after intravenous injection): about 30%

— patent US8377969B2, “Compounds for use in the treatment of cancer” (PledPharma AB, priority 2007, dated 2013)
